Results as given in PubChem BioAssay (NCI).
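Method: 48-hour compound exposure of cells in 96-well plates, five concentrations, linear interpolation of endpoints. The concentration for full growth arrest is given as TGI.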

What was measured:
Experiment in all cases: DTP human tumour cell line panel, 48 h
[1] = tested on: K-562 leukemia
[2] = tested on: DMS 273 small cell lung
[3] = tested on: SK-MEL-28 melanoma
[4] = tested on: DMS 114 small cell lung
[5] = tested on: OVCAR-3 ovarian
[6] = tested on: RXF 393 renal
[7] = tested on: SNB-19 CNS
[8] = tested on: SW-620 colon
[9] = tested on: HCT-116 colon
[10] = tested on: MALME-3M melanoma
[11] = tested on: UACC-62 melanoma
[12] = tested on: TK-10 renal
[13] = tested on: CCRF-CEM leukemia
[14] = tested on: DLD-1 colon
[15] = tested on: SR leukemia
[16] = tested on: KM20L2 colon
[17] = tested on: RPMI-8226 leukemia
[18] = tested on: SK-MEL-5 melanoma
[19] = tested on: OVCAR-5 ovarian
[20] = tested on: SNB-78 CNS
[21] = tested on: SF-268 CNS
[22] = tested on: ACHN renal
[23] = tested on: HT29 colon
[24] = tested on: OVCAR-8 ovarian
[25] = tested on: A549 NSCLC
[26] = tested on: SF-539 CNS
[27] = tested on: SN12C renal
[28] = tested on: CAKI-1 renal
[29] = tested on: HCC-2998 colon
[30] = tested on: U251 CNS
[31] = tested on: MOLT-4 leukemia
[32] = tested on: KM12 colon
[33] = tested on: HOP-92 NSCLC
[34] = tested on: UACC-257 melanoma
[35] = tested on: SK-OV-3 ovarian
[36] = tested on: NCI-H460 lung
[37] = tested on: IGROV1 ovarian
[38] = tested on: UO-31 renal
[39] = tested on: SNB-75 CNS
[40] = tested on: SF-295 CNS
[41] = tested on: LXFL 529 NSCLC
[42] = tested on: 786-0 renal
[43] = tested on: NCI-H23 lung
[44] = tested on: SK-MEL-2 melanoma
[45] = tested on: COLO 205 colon
[46] = tested on: A498 renal
[47] = tested on: HL-60(TB) leukemia
[48] = tested on: NCI-H226 lung
[49] = tested on: M19-MEL melanoma
[50] = tested on: LOX IMVI melanoma
[51] = tested on: EKVX NSCLC
[52] = tested on: OVCAR-4 ovarian
[53] = tested on: HOP-18 NSCLC
[54] = tested on: NCI-H522 lung
[55] = tested on: M14 melanoma
[56] = tested on: HCT-15 colon
[57] = tested on: HOP-62 NSCLC

In the case of Cc1nc(C(=O)O)c2ccccc2n1, the TGI [1] is reported as greater than 100 µM, the TGI [2] is reported as greater than 100 µM and the TGI [3] is reported as greater than 100 µM. The TGI [4] was greater than 100 µM, the TGI [5] was greater than 100 µM and the TGI [6] was greater than 100 µM. For the same compound, the TGI [7] was greater than 100 µM, the TGI [8] was greater than 100 µM and the TGI [9] was greater than 100 µM. For the same compound, the TGI [10] was greater than 100 µM, the TGI [11] was greater than 100 µM and the TGI [12] was greater than 100 µM. It also gave a TGI [13] greater than 100 µM, a TGI [14] greater than 100 µM and a TGI [15] greater than 100 µM. The TGI [16] was greater than 100 µM, the TGI [17] was greater than 100 µM and the TGI [18] was greater than 100 µM. For the same compound, the TGI [19] was greater than 100 µM, the TGI [20] was greater than 100 µM and the TGI [21] was greater than 100 µM. The TGI [22] was greater than 100 µM, the TGI [23] was greater than 100 µM and the TGI [24] was greater than 100 µM. It also gave a TGI [25] greater than 100 µM, a TGI [26] greater than 100 µM and a TGI [27] greater than 100 µM. For the same compound, the TGI [28] was greater than 100 µM, the TGI [29] was greater than 100 µM and the TGI [30] was greater than 100 µM. The TGI [31] was greater than 100 µM, the TGI [32] was greater than 100 µM and the TGI [33] was greater than 100 µM. It also gave a TGI [34] greater than 100 µM, a TGI [35] greater than 100 µM and a TGI [36] greater than 100 µM. It also gave a TGI [37] greater than 100 µM, a TGI [38] greater than 100 µM and a TGI [39] greater than 100 µM. The TGI [40] was greater than 100 µM, the TGI [41] was greater than 100 µM and the TGI [42] was greater than 100 µM. The TGI [43] was greater than 100 µM, the TGI [44] was greater than 100 µM and the TGI [45] was greater than 100 µM. For the same compound, the TGI [46] was greater than 100 µM and the TGI [47] was greater than 100 µM.
In the case of [O-]c1c2cc(-[n+]3c(-c4ccccc4)cc(-c4ccccc4)cc3-c3ccccc3)cc1COCCOCCOCCOCCOC2, the TGI [1] is reported as greater than 100 µM, the TGI [2] is reported as greater than 100 µM and the TGI [3] is reported as 46.7 µM. For the same compound, the TGI [7] was greater than 100 µM, the TGI [8] was greater than 100 µM and the TGI [9] was greater than 100 µM. It also gave a TGI [10] of 98.3 µM, a TGI [48] greater than 100 µM and a TGI [49] of 87.3 µM. It also gave a TGI [11] of 44.2 µM, a TGI [12] greater than 100 µM and a TGI [13] greater than 100 µM. The TGI [14] was greater than 100 µM, the TGI [15] was 65.7 µM and the TGI [50] was greater than 100 µM. The TGI [16] was greater than 100 µM, the TGI [51] was greater than 100 µM and the TGI [52] was greater than 100 µM. It also gave a TGI [53] greater than 100 µM, a TGI [19] greater than 100 µM and a TGI [54] greater than 100 µM. For the same compound, the TGI [21] was 93.5 µM, the TGI [22] was greater than 100 µM and the TGI [23] was greater than 100 µM. It also gave a TGI [24] greater than 100 µM, a TGI [25] greater than 100 µM and a TGI [55] greater than 100 µM. It also gave a TGI [26] greater than 100 µM, a TGI [27] greater than 100 µM and a TGI [28] greater than 100 µM. The TGI [29] was greater than 100 µM, the TGI [30] was greater than 100 µM and the TGI [31] was greater than 100 µM. It also gave a TGI [32] of 50 µM, a TGI [33] of 73.9 µM and a TGI [34] of 82.5 µM. The TGI [35] was greater than 100 µM, the TGI [38] was greater than 100 µM and the TGI [56] was greater than 100 µM. The TGI [39] was greater than 100 µM, the TGI [40] was greater than 100 µM and the TGI [41] was 55 µM. The TGI [42] was greater than 100 µM, the TGI [57] was greater than 100 µM and the TGI [43] was greater than 100 µM. For the same compound, the TGI [44] was 44 µM, the TGI [45] was 33.5 µM and the TGI [47] was greater than 100 µM.
COc1ccc(CCC2c3cc(OC)c(OC)cc3CCN2C)cc1OC (stereo unspecified) showed a TGI [1] greater than 100 µM, a TGI [3] greater than 100 µM and a TGI [4] greater than 100 µM. For the same compound, the TGI [5] was greater than 100 µM, the TGI [6] was greater than 100 µM and the TGI [7] was greater than 100 µM. The TGI [8] was greater than 100 µM, the TGI [9] was greater than 100 µM and the TGI [10] was greater than 100 µM. It also gave a TGI [48] greater than 100 µM, a TGI [49] greater than 100 µM and a TGI [11] greater than 100 µM. The TGI [12] was greater than 100 µM, the TGI [13] was greater than 100 µM and the TGI [14] was greater than 100 µM. The TGI [15] was greater than 100 µM, the TGI [50] was greater than 100 µM and the TGI [16] was greater than 100 µM. It also gave a TGI [51] greater than 100 µM, a TGI [17] greater than 100 µM and a TGI [52] greater than 100 µM. For the same compound, the TGI [18] was greater than 100 µM, the TGI [53] was greater than 100 µM and the TGI [19] was greater than 100 µM. For the same compound, the TGI [54] was greater than 100 µM, the TGI [20] was greater than 100 µM and the TGI [21] was greater than 100 µM. For the same compound, the TGI [22] was greater than 100 µM, the TGI [23] was greater than 100 µM and the TGI [24] was greater than 100 µM. For the same compound, the TGI [25] was greater than 100 µM, the TGI [55] was greater than 100 µM and the TGI [26] was greater than 100 µM. The TGI [27] was greater than 100 µM, the TGI [28] was greater than 100 µM and the TGI [29] was greater than 100 µM. The TGI [30] was greater than 100 µM, the TGI [31] was greater than 100 µM and the TGI [32] was greater than 100 µM. It also gave a TGI [33] greater than 100 µM, a TGI [34] greater than 100 µM and a TGI [35] greater than 100 µM. It also gave a TGI [36] greater than 100 µM, a TGI [37] greater than 100 µM and a TGI [38] greater than 100 µM. For the same compound, the TGI [56] was greater than 100 µM, the TGI [39] was greater than 100 µM and the TGI [40] was greater than 100 µM. The TGI [41] was greater than 100 µM, the TGI [42] was greater than 100 µM and the TGI [57] was greater than 100 µM. It also gave a TGI [43] greater than 100 µM, a TGI [44] greater than 100 µM and a TGI [45] greater than 100 µM. For the same compound, the TGI [47] was greater than 100 µM.
With CC12CCC(=O)N1c1ccc([N+](=O)[O-])cc1N2 (stereo unspecified) the TGI [1] was greater than 100 µM, the TGI [2] was greater than 100 µM and the TGI [3] was greater than 100 µM. For the same compound, the TGI [4] was greater than 100 µM, the TGI [5] was greater than 100 µM and the TGI [6] was greater than 100 µM. It also gave a TGI [7] greater than 100 µM, a TGI [8] greater than 100 µM and a TGI [9] greater than 100 µM. It also gave a TGI [10] greater than 100 µM, a TGI [48] greater than 100 µM and a TGI [49] greater than 100 µM. For the same compound, the TGI [11] was greater than 100 µM, the TGI [13] was greater than 100 µM and the TGI [14] was greater than 100 µM. It also gave a TGI [15] greater than 100 µM, a TGI [50] greater than 100 µM and a TGI [16] greater than 100 µM. For the same compound, the TGI [51] was greater than 100 µM, the TGI [17] was greater than 100 µM and the TGI [52] was greater than 100 µM. The TGI [18] was greater than 100 µM, the TGI [53] was greater than 100 µM and the TGI [54] was greater than 100 µM. It also gave a TGI [20] greater than 100 µM, a TGI [21] greater than 100 µM and a TGI [22] greater than 100 µM. It also gave a TGI [23] greater than 100 µM, a TGI [24] greater than 100 µM and a TGI [25] greater than 100 µM. For the same compound, the TGI [55] was greater than 100 µM, the TGI [26] was greater than 100 µM and the TGI [27] was greater than 100 µM. It also gave a TGI [30] greater than 100 µM, a TGI [31] greater than 100 µM and a TGI [32] greater than 100 µM. For the same compound, the TGI [34] was greater than 100 µM, the TGI [35] was greater than 100 µM and the TGI [37] was greater than 100 µM. The TGI [38] was greater than 100 µM, the TGI [56] was greater than 100 µM and the TGI [39] was greater than 100 µM. The TGI [40] was greater than 100 µM, the TGI [41] was greater than 100 µM and the TGI [42] was greater than 100 µM. For the same compound, the TGI [57] was greater than 100 µM, the TGI [43] was greater than 100 µM and the TGI [44] was greater than 100 µM. For the same compound, the TGI [45] was greater than 100 µM, the TGI [46] was greater than 100 µM and the TGI [47] was greater than 100 µM.
